Test results reported in patent US6034096A, “Compounds with anti-inflammatory and immunosuppressive activities” (Italfarmaco S.p.A., priority 1996, dated 2000).
Structures can show the parent of a compound that is named as a salt.

Key:
serum TNFα = assay: In vivo LPS-induced TNFα production (serum TNFα, ELISA); parameters: species or system Male BALB/c mice; settings: serum 2 h after LPS
Method: 2. In vivo LPS-induced TNFα production Male BALB/c mice (18-20 g) were obtained from Harlan-Nossan (Correzzana, Italy); Lipopolysaccharide (LPS) from S. enteritidis (code L-6011) was from Sigma (St. Louis, Mo.); Dexamethasone (Soldesam) from Laboratorio Farmacologico Milanese (Caronno P., Italy).
Mice were treated i.p. with LPS (S. enteritidis, 7.5 mg/kg). Dexamethasone was administered i.p. 30 min. before LPS. Compounds were administered orally 90 min. before LPS. Two hours after LPS administration the anaesthetized animals were sacrificed, blood was collected by cardiac puncture and allowed to coagulate. Serum TNFα was measured by ELISA with "mouse Reagent Sets" (Genzyme, Cambridge, Mass.) according to the manufacturer's instructions and using mouse recombinant TNFα as standard.

human IL-1β = assay: In vitro cytokines production test (LPS-stimulated human PBMC, IL-1β ELISA); assay type: cell-based; settings: 10 ng/ml LPS, 60 min pretreatment, 20 hours culture, read-out: IC50 (inhibition of IL-1β production)
Method: 1. In vitro cytokines production test
The compounds of the invention were tested by in particular on the production of human IL-1β. Mononuclear cells (PBMC) were prepared from peripheral blood ("buffy coat") from healthy donors, by centrifugation over density gradient Ficoll-Hypaque (Biochrom KG, Berlin, Germany). The cells (2,5×10^6 for ml) were cultured at 37° C. under humid atmosphere containing 5% CO2 in 96-wells plates (Nunc) at a final volume of 200 μl. […] The production of cytokines was induced by stimulating the cells with 10 ng/ ml of LPS (lipopolysaccharide) from E. coli serotype 055:B5 (Sigma Chemical Co., St. Louis. Mo.). The cells were pretreated with the compounds of the intention dissolved in DMSO (final concentration: 0.05% […]) for 60 minutes. The compounds and LPS were present during the whole 20 hours of culture. As the negative control, not-stimulated cells were used. At the end of the test, supernatants were collected and the IL-1β production was tested by a specific ELISA assay ("sandwich-type antigen capture", R & D System, Minneapolis, Minn.; all of the tests were carried out in duplicate). A goat polyclonal serum specific for human IL-1β was used, purified by affinity, to cover the 96-wells microtitration plates (Nunc). After washing, the wells were incubated for 2 hours with 3% of boyine serum albumine (BSA) in buffered saline. Recombinant human IL-1β was used to obtain a standard curve for each test and the supernatant samples were diluted to 1/20 and 1/80 with PBS+0.1% of BSA. The plates were then incubated at 4° C. overnight. After washing, the secondary antibody was added, i.e. an anti- human lL-1β murine monoclonal antibody. After incubation and washing, a goat anti-murine Ig-G polyclonal antibody peroxidase-conjugated (Zymed) was added, then the chromogenic substrate tetramethylbenzidine dichloride (Sigma). The reaction was stopped with 4N H2 SO4 and the absorbance at 450 nm was measured with an automatic spectrophotometer (Perkin-Elmer).

[1] = 30 mg/kg, i.p. 30 min before LPS (7.5 mg/kg i.p.)
[2] = 5.0 ng/kg (so in the source), orally 90 min before LPS (7.5 mg/kg i.p.)
[3] = 0.5 mg/kg, orally 90 min before LPS (7.5 mg/kg i.p.)

Row | SMILES | IC50 (human IL-1β) [nM] | other results
1 | C[C@@H]1C[C@H]2[C@@H]3CCC4=CC(=O)C=C[C@]4(C)[C@@]3(F)[C@@H](O)C[C@]2(C)[C@@]1(O)C(=O)CO [Dexamethasone, reference compound] | – | Inhibition (%) (serum TNFα; [1]): 90.2%; TNFα (serum TNFα; [1]): 112 pg/mL
2 | O=C(CCCCc1ccccc1)Nc1ccc(C(=O)NO)cc1 [Example 1, 4-(5-Phenylpentanamido)benzohydroxamic acid] | 305 | –
3 | O=C(NCc1ccc(C(=O)NO)cc1)OCC(c1ccccc1)c1ccccc1 [Example 2, 4-[2,2-(Diphenyl)ethoxycarbamoylmethyl]benzohydroxamic acid] | 163 | –
4 | O=C(Nc1ccc(C(=O)NO)cc1)OCCC12CC3CC(CC(C3)C1)C2 [Example 3] | 531 | –
5 | O=C(Nc1ccc(C(=O)NO)cc1)OCc1cccc2ccccc12 [Example 4] | 28 | –
6 | O=C(Nc1ccc(C(=O)NO)cc1)OCC1CCc2ccccc2C1 (stereo not shown) [Example 5] | 137 | –
7 | O=C(Nc1ccc(C(=O)NO)cc1)OCCCc1ccccc1 [Example 6] | 43 | –
8 | O=C(Nc1ccc(C(=O)NO)cc1)OCc1ccc2ccccc2c1 [Example 7] | 12 | –
9 | O=C(Nc1ccc(C(=O)NO)cc1)OC/C=C/c1ccccc1 [Example 8] | 29 | –
10 | O=C(Nc1ccc(C(=O)NO)cc1)OC/C=C\c1ccccc1 [Example 9] | 72 | –
11 | O=C(Nc1ccc(C(=O)NO)cc1)OCCC(c1ccccc1)c1ccccc1 [Example 10] | 101 | –
12 | CCN(CC)Cc1ccc2cc(COC(=O)Nc3ccc(C(=O)NO)cc3)ccc2c1 [Example 12, hydrochloride] | 96 | Inhibition (%) (serum TNFα; [2]): 64.3%; TNFα (serum TNFα; [2]): 407 pg/mL; Inhibition (%) (serum TNFα; [3]): 55.0%; TNFα (serum TNFα; [3]): 514 pg/mL
13 | CCCN(CCC)Cc1ccc2cc(COC(=O)Nc3ccc(C(=O)NO)cc3)ccc2c1 [Example 13, hydrochloride] | 166 | –
14 | CCCCN(CCCC)Cc1ccc2cc(COC(=O)Nc3ccc(C(=O)NO)cc3)ccc2c1 [Example 14, hydrochloride] | 382 | –
15 | CCN(CC)Cc1ccc(COC(=O)Nc2ccc(C(=O)NO)cc2)c2ccccc12 [Example 15, hydrochloride] | 14 | –
16 | CCN(CC)Cc1ccc2cc(CNC(=O)Nc3ccc(C(=O)NO)cc3)ccc2c1 [Example 16, hydrochloride] | 10 | –
17 | CC(C)N1Cc2ccccc2CC1COC(=O)NCc1ccc(C(=O)NO)cc1 (stereo not shown) [Example 17, 4-[N-isopropyl-1,2,3,4-tetrahydroisoquinol-3-yl)methyloxycarbamoylmethyl]benzohydroxamic acid hydrochloride] | 21 | –
